Data published in US8658604B2, “Template-fixed beta-hairpin peptidomimetics with protease inhibitory activity” (Polyphor Ltd, priority 2005, dated 2014).
Where a SMILES comes first, the peptide text is derived from it.

What was measured:
[1] = target: T1, Elastase from human neutrophils (Homo sapiens, UniProt P08246); assay: Enzymatic assay, elastase
T1 sequence (P08246 30-267): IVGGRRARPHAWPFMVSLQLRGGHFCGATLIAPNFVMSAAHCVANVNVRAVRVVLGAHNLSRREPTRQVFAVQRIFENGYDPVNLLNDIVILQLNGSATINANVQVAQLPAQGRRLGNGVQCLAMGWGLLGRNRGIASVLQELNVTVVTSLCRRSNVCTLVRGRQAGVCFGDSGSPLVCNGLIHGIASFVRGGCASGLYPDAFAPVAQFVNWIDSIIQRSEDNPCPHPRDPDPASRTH

[2] = target: T2, CathepsinG, from human neutrophils (Homo sapiens, UniProt P08311); assay: Enzymatic assay, cathepsin G; details: Cathepsin G IC50
T2 sequence (P08311 21-244): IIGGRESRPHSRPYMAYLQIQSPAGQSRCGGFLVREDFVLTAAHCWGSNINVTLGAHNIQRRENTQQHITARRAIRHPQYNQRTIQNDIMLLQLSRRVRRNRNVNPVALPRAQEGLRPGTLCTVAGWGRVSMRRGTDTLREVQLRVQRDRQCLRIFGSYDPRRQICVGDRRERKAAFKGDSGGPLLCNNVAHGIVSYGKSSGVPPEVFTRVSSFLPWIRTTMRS

[3] = target: Trypsin, from human pancreas (Homo sapiens, UniProt P07477); assay: Enzymatic assay, trypsin
[4] = test system: Tryptase, from human lung; assay: Enzymatic assay, tryptase

Compound	IC50 [2] [nM]	also measured
CC[C@H](C)[C@@H]1NC(=O)[C@@H]2CCCN2C(=O)[C@@H]2CCCN2C(=O)[C@H](CC(=O)O)NC(=O)[C@H](CO)NC(=O)[C@H](CCCCN)NC(=O)[C@H]([C@@H](C)O)NC(=O)[C@@H]2CSSC[C@H](NC1=O)C(=O)N[C@@H](CO)C(=O)N1CCC[C@@H]1C(=O)N1CCC[C@H]1C(=O)N[C@@H](Cc1ccc(N)cc1)C(=O)N2 [Ex. 9] (HELM PEPTIDE1{[Nc1ccc(C[C@H](N[*:1])C(=O)[*:2])cc1].C.T.K.S.D.P.P.I.C.S.[dP].P}$PEPTIDE1,PEPTIDE1,2:R3-10:R3|PEPTIDE1,PEPTIDE1,1:R1-13:R2$$$V2.0)	105	Elastase at 100 μM % ([1]; at 100 μM (stated in cell instead of IC50)): 4.1 at %; Trypsin at 100 μM % [3]: 88.1%
CCCC[C@@H]1NC(=O)[C@@H]2CCCN2C(=O)[C@H]2CCCN2C(=O)[C@H](CC(N)=O)NC(=O)[C@@H]2CSSC[C@H](NC1=O)C(=O)N[C@@H]([C@@H](C)O)C(=O)N[C@@H](CCCCN)C(=O)N[C@@H](CO)C(=O)N[C@@H](CC(=O)O)C(=O)N1CCC[C@H]1C(=O)N1CCC[C@H]1C(=O)N[C@@H]([C@@H](C)CC)C(=O)N2 [Ex. 41] (HELM PEPTIDE1{[Nle].C.T.K.S.D.P.P.I.C.N.[dP].P}$PEPTIDE1,PEPTIDE1,2:R3-10:R3|PEPTIDE1,PEPTIDE1,1:R1-13:R2$$$V2.0)	49	–
CCCC[C@@H]1NC(=O)[C@@H]2CCCN2C(=O)[C@H]2CCCN2C(=O)[C@H](CC(=O)O)NC(=O)[C@@H]2CSSC[C@H](NC1=O)C(=O)N[C@@H]([C@@H](C)O)C(=O)N[C@@H](CCCCN)C(=O)N[C@@H](CO)C(=O)N[C@@H](CC(=O)O)C(=O)N1CCC[C@H]1C(=O)N1CCC[C@H]1C(=O)N[C@@H]([C@@H](C)CC)C(=O)N2 [Ex. 43] (HELM PEPTIDE1{[Nle].C.T.K.S.D.P.P.I.C.D.[dP].P}$PEPTIDE1,PEPTIDE1,2:R3-10:R3|PEPTIDE1,PEPTIDE1,1:R1-13:R2$$$V2.0)	77	–
CC[C@H](C)[C@@H]1NC(=O)[C@@H]2CCCN2C(=O)[C@@H]2CCCN2C(=O)[C@H](CC(=O)O)NC(=O)[C@H](CO)NC(=O)[C@H](CCCCN)NC(=O)[C@H]([C@@H](C)O)NC(=O)[C@@H]2CSSC[C@H](NC1=O)C(=O)N[C@@H](CC(N)=O)C(=O)N1CCC[C@@H]1C(=O)N1CCC[C@H]1C(=O)N[C@@H](Cc1ccccc1Cl)C(=O)N2 [Ex. 45] (HELM PEPTIDE1{[O=C([C@H](Cc1ccccc1Cl)N[*:1])[*:2]].C.T.K.S.D.P.P.I.C.N.[dP].P}$PEPTIDE1,PEPTIDE1,2:R3-10:R3|PEPTIDE1,PEPTIDE1,1:R1-13:R2$$$V2.0)	47	–
CC[C@H](C)[C@@H]1NC(=O)[C@@H]2CCCN2C(=O)[C@@H]2CCCN2C(=O)[C@H](CC(=O)O)NC(=O)[C@H](CO)NC(=O)[C@H](CCCCN)NC(=O)[C@H]([C@@H](C)O)NC(=O)[C@@H]2CSSC[C@H](NC1=O)C(=O)N[C@@H](CO)C(=O)N[C@H](CC(=O)O)C(=O)N1CCC[C@H]1C(=O)N[C@@H](Cc1ccccc1)C(=O)N2 [Ex. 46] (HELM PEPTIDE1{F.C.T.K.S.D.P.P.I.C.S.[dD].P}$PEPTIDE1,PEPTIDE1,2:R3-10:R3|PEPTIDE1,PEPTIDE1,1:R1-13:R2$$$V2.0)	–	Tryptase at 100 μM % ([4]; at 100 μM): 44.1%
CC[C@H](C)[C@@H]1NC(=O)[C@@H]2CCCN2C(=O)[C@@H]2CCCN2C(=O)[C@H](CC(=O)O)NC(=O)[C@H](CO)NC(=O)[C@H](CCCCN)NC(=O)[C@H]([C@@H](C)O)NC(=O)[C@@H]2CSSC[C@H](NC1=O)C(=O)N[C@@H](CO)C(=O)N1CCC[C@@H]1C(=O)N[C@@H](CC(C)C)C(=O)N[C@@H](Cc1ccccc1)C(=O)N2 [Ex. 51] (HELM PEPTIDE1{C.S.[dP].L.F.C.T.K.S.D.P.P.I}$PEPTIDE1,PEPTIDE1,1:R3-6:R3|PEPTIDE1,PEPTIDE1,1:R1-13:R2$$$V2.0)	91	IC50 ([1]; Elastase IC50): > 100000 nM
CC[C@H](C)[C@@H]1NC(=O)[C@@H]2CCCN2C(=O)[C@@H]2CCCN2C(=O)[C@H](CC(=O)O)NC(=O)[C@H](CO)NC(=O)[C@H](CCCCN)NC(=O)[C@H]([C@@H](C)O)NC(=O)[C@@H]2CSSC[C@H](NC1=O)C(=O)N[C@@H](CO)C(=O)N1CCC[C@@H]1C(=O)N1CCC[C@H]1C(=O)N[C@@H](Cc1c[nH]c3ccccc13)C(=O)N2 [Ex. 61] (HELM PEPTIDE1{W.C.T.K.S.D.P.P.I.C.S.[dP].P}$PEPTIDE1,PEPTIDE1,2:R3-10:R3|PEPTIDE1,PEPTIDE1,1:R1-13:R2$$$V2.0)	72	–
CC[C@H](C)[C@@H]1NC(=O)[C@@H]2CCCN2C(=O)[C@@H]2CCCN2C(=O)[C@H](CC(=O)O)NC(=O)[C@H](CO)NC(=O)[C@H](CCCCN)NC(=O)[C@H]([C@@H](C)O)NC(=O)[C@@H]2CSSC[C@H](NC1=O)C(=O)N[C@@H](CO)C(=O)N1CCC[C@@H]1C(=O)N1CCC[C@H]1C(=O)N[C@@H](Cc1cccc3ccccc13)C(=O)N2 [Ex. 62] (HELM PEPTIDE1{[O=C([C@H](Cc1cccc2ccccc12)N[*:1])[*:2]].C.T.K.S.D.P.P.I.C.S.[dP].P}$PEPTIDE1,PEPTIDE1,2:R3-10:R3|PEPTIDE1,PEPTIDE1,1:R1-13:R2$$$V2.0)	69	–
C[C@@H](O)[C@@H]1NC(=O)[C@@H]2CSSC[C@H](NC(=O)[C@H](CC3CCCCC3)NC(=O)[C@@H]3CCCN3C(=O)[C@@H]3CCCN3C(=O)[C@H](CC(=O)O)NC(=O)[C@H](CO)NC(=O)[C@H](CCCCN)NC1=O)C(=O)N[C@@H](Cc1ccc(O)cc1)C(=O)N1CCC[C@@H]1C(=O)N1CCC[C@H]1C(=O)N[C@@H](C1CCCCC1)C(=O)N2 [Ex. 66] (HELM PEPTIDE1{[O=C([C@@H](N[*:1])C1CCCCC1)[*:2]].C.T.K.S.D.P.P.[Cha].C.Y.[dP].P}$PEPTIDE1,PEPTIDE1,2:R3-10:R3|PEPTIDE1,PEPTIDE1,1:R1-13:R2$$$V2.0)	48	–
CC[C@H](C)[C@@H]1NC(=O)[C@@H]2CCCN2C(=O)[C@@H]2CCCN2C(=O)[C@H](CC(=O)O)NC(=O)[C@H](CO)NC(=O)[C@H](CCCCN)NC(=O)[C@H]([C@@H](C)O)NC(=O)[C@@H]2CSSC[C@H](NC1=O)C(=O)N[C@@H](CO)C(=O)N[C@H](CC(N)=O)C(=O)N1CCC[C@H]1C(=O)N[C@@H](Cc1ccccc1)C(=O)N2 [Ex. 69] (HELM PEPTIDE1{C.S.[dN].P.F.C.T.K.S.D.P.P.I}$PEPTIDE1,PEPTIDE1,1:R3-6:R3|PEPTIDE1,PEPTIDE1,1:R1-13:R2$$$V2.0)	68	–
C[C@@H](O)[C@@H]1NC(=O)[C@@H]2CSSC[C@H](NC(=O)[C@H](CC3CCCCC3)NC(=O)[C@@H]3CCCN3C(=O)[C@@H]3CCCN3C(=O)[C@H](CC(=O)O)NC(=O)[C@H](CO)NC(=O)[C@H](CCCCN)NC1=O)C(=O)N[C@@H](CC(N)=O)C(=O)N1CCC[C@@H]1C(=O)N1CCC[C@H]1C(=O)N[C@@H](Cc1ccc(N)cc1)C(=O)N2 [Ex. 70] (HELM PEPTIDE1{[Nc1ccc(C[C@H](N[*:1])C(=O)[*:2])cc1].C.T.K.S.D.P.P.[Cha].C.N.[dP].P}$PEPTIDE1,PEPTIDE1,2:R3-10:R3|PEPTIDE1,PEPTIDE1,1:R1-13:R2$$$V2.0)	69	–
C[C@@H](O)[C@@H]1NC(=O)[C@@H]2CSSC[C@H](NC(=O)[C@H](CC3CCCCC3)NC(=O)[C@@H]3CCCN3C(=O)[C@@H]3CCCN3C(=O)[C@H](CC(=O)O)NC(=O)[C@H](CO)NC(=O)[C@H](CCCCN)NC1=O)C(=O)N[C@@H](CCCNC(=N)N)C(=O)N1CCC[C@@H]1C(=O)N1CCC[C@H]1C(=O)N[C@@H](C1CCCCC1)C(=O)N2 [Ex. 71] (HELM PEPTIDE1{[O=C([C@@H](N[*:1])C1CCCCC1)[*:2]].C.T.K.S.D.P.P.[Cha].C.R.[dP].P}$PEPTIDE1,PEPTIDE1,2:R3-10:R3|PEPTIDE1,PEPTIDE1,1:R1-13:R2$$$V2.0)	70	–
CC[C@H](C)[C@@H]1NC(=O)[C@@H]2CCCN2C(=O)[C@@H]2CCCN2C(=O)[C@H](CC(=O)O)NC(=O)[C@H](CO)NC(=O)[C@H](CCCCN)NC(=O)[C@H]([C@@H](C)O)NC(=O)[C@@H]2CSSC[C@H](NC1=O)C(=O)N[C@@H](CO)C(=O)N[C@H]([C@H](C)O)C(=O)N1CCC[C@H]1C(=O)N[C@@H](Cc1ccccc1)C(=O)N2 [Ex. 72] (HELM PEPTIDE1{C.S.[dT].P.F.C.T.K.S.D.P.P.I}$PEPTIDE1,PEPTIDE1,1:R3-6:R3|PEPTIDE1,PEPTIDE1,1:R1-13:R2$$$V2.0)	87	–
CC[C@H](C)[C@@H]1NC(=O)[C@@H]2CCCN2C(=O)[C@@H]2CCCN2C(=O)[C@H](CC(=O)O)NC(=O)[C@H](CO)NC(=O)[C@H](CCCCN)NC(=O)[C@H]([C@@H](C)O)NC(=O)[C@@H]2CSSC[C@H](NC1=O)C(=O)N[C@@H](CO)C(=O)N1CCC[C@@H]1C(=O)N[C@@H](CC(C)C)C(=O)N[C@@H](Cc1ccccc1)C(=O)N2 [Ex. 74] (HELM PEPTIDE1{C.S.[dP].L.F.C.T.K.S.D.P.P.I}$PEPTIDE1,PEPTIDE1,1:R3-6:R3|PEPTIDE1,PEPTIDE1,1:R1-13:R2$$$V2.0)	–	Trypsin at 100 μM % [3]: 86%
CC[C@H](C)[C@@H]1NC(=O)[C@@H]2CCCN2C(=O)[C@H]2CCCN2C(=O)[C@H](CCCNC(=N)N)NC(=O)[C@@H]2CSSC[C@H](NC1=O)C(=O)N[C@@H]([C@@H](C)O)C(=O)N[C@@H](CCCCN)C(=O)N[C@@H](CO)C(=O)N[C@@H](CC(C)C)C(=O)N1CCC[C@H]1C(=O)N1CCC[C@H]1C(=O)N[C@@H]([C@@H](C)CC)C(=O)N2 [Ex. 180] (HELM PEPTIDE1{I.C.T.K.S.L.P.P.I.C.R.[dP].P}$PEPTIDE1,PEPTIDE1,2:R3-10:R3|PEPTIDE1,PEPTIDE1,1:R1-13:R2$$$V2.0)	120	IC50 ([4]; read-out: Tryptase IC50): < 100 nM; IC50 [3]: 60 nM
